The numbers were not newly measured in patent US9849088B2, “Depot formulations of a hydrophobic active ingredient and methods for preparation thereof” (PAINREFORM LTD., priority 2012, dated 2017), which cites them from elsewhere.

The structures appear in SMILES notation.

For the data set the following is noted: comparison value.

`CCCN1CCCC[C@H]1C(=O)Nc1c(C)cccc1C` [ropivacaine]: the Toxic threshold (plasma) is 0.6 µg/mL.
